These results are taken from PubChem BioAssay (NCI).

Holding throughout (assay): NCI-60 cell line screen, 48 h
The subject of assay [1] is MCF7 breast.
In assay [2] the test system is TK-10 renal.
The subject of assay [3] is SK-MEL-5 melanoma.
Assay [4] has as its system NCI-H522 lung.
For assay [5], the system named is A498 renal.
For assay [6], the system named is T-47D breast.
The subject of assay [7] is 786-0 renal.
Assay [8] relates to NCI-H23 lung.
Assay [9] deals with BT-549 breast.
The subject of assay [10] is RPMI-8226 leukemia.

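A five-concentration, 48-hour dose response in 96-well plates underlies each endpoint, interpolated linearly between surrounding concentrations. The concentration for 50% growth inhibition is given as GI50. TGI marks complete inhibition of growth.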 Bounds are passed on as bounds.

On to `COc1cc2c(c(OC)c1OC)-c1c(c3ccc([N+](=O)[O-])cc3c(=O)n1CCCN=[N+]=[N-])C2=O`, for which the GI50 in [1] was 1.37 µM; in assay [2], 13.1 µM; in assay [3], above 100 µM; in assay [4], 0.251 µM; in [5], 11.9 µM; in assay [6], 34.8 µM. Also, the GI50 in assay [7] was 15.4 µM; in assay [8], 15.2 µM; in assay [9], 47.5 µM; in assay [10], above 100 µM. The TGI in [1] was above 100 µM; in assay [2] it was 33.1 µM; in assay [3], above 100 µM; in assay [4], 5.71 µM; in [5], 29.6 µM; in [6], above 100 µM. Moreover, the TGI in assay [7] was 43.8 µM; in assay [8], 43.6 µM; in [9], above 100 µM; in assay [10], above 100 µM.

As to `C[As](C)SCC(COC(=O)c1ccccc1)OC(=O)c1ccccc1` (stereo not given), the GI50 in assay [1] was 0.0462 µM; in assay [2] it was 0.0159 µM; in assay [3], 0.015 µM; in assay [4], 0.0836 µM; in assay [5], 0.135 µM; in [6], 0.0452 µM. Also, the GI50 in assay [7] was 0.1 µM; in assay [8], 0.05 µM; in [9] it was 1.01 µM; in assay [10], 0.0264 µM. Besides, the TGI in assay [1] stood at 0.312 µM; in assay [2], 0.126 µM; in assay [3] it was 0.0678 µM; in assay [4], 2.92 µM; in assay [5], 1.15 µM; in assay [6], 3.84 µM. In addition, the TGI in assay [7] amounted to 0.556 µM; in assay [8] it was 0.125 µM; in assay [9], 6.4 µM; in assay [10], 0.357 µM.

As for `COc1ccc(C(=O)CC(Cl)=C(Cl)Cl)cc1`, the GI50 in assay [1] is 53.4 µM; in [2], 23.9 µM; in [3], 33.8 µM; in assay [4] it was 34.3 µM; in assay [5], above 100 µM; in assay [6] it was 26.2 µM. Further, the GI50 in [7] was 21.7 µM; in assay [8], 23.3 µM; in assay [9], 21.6 µM; in assay [10], 23.5 µM. In addition, the TGI was above 100 µM in [1]; 59.9 µM in assay [2]; above 100 µM in assay [3]; 81.5 µM in assay [4]; above 100 µM in [5]; 61.9 µM in assay [6]. For the same compound, the TGI in assay [7] was 44.7 µM; in assay [8], 47.1 µM; in assay [9], 57.3 µM; in [10], 68.5 µM.

For the compound `Cn1c([N+](=O)[O-])cnc1/C=C1\Oc2ccc(Cl)cc2C1=O`, the GI50 is 0.485 µM in assay [1]; 1.04 µM in assay [2]; 0.727 µM in [3]; 0.528 µM in assay [4]; 1.89 µM in [5]; 4.07 µM in assay [6]. Besides, the GI50 in [7] was 0.942 µM; in [8], 0.652 µM; in [9], 1.2 µM; in assay [10], 0.985 µM. The TGI in assay [1] is 4.42 µM; in assay [2] it was 2.77 µM; in [3] it was 2.14 µM; in assay [4], 2.19 µM; in [5] it was 5.07 µM; in assay [6] it was 46.4 µM. Further, the TGI in [7] was determined as 3.39 µM; in assay [8], 4.47 µM; in assay [9], 4.99 µM; in assay [10], 5.58 µM.

As to `Cn1c(N)cc(=O)nc1N`, the TGI in [1], in assay [2], in assay [3], in assay [4], in assay [5] and in assay [6] was above 100 µM in each case. Further, the TGI in assay [7], in assay [8], in assay [9] and in assay [10] was above 100 µM throughout.

As for `CCCCCCn1c(=N)n(CC(O)COc2cccc(C)c2)c2ccccc21` (stereo not given), the GI50 in assay [1] was 1.76 µM; in [2], 3.71 µM; in [3] it was 1.77 µM; in assay [4], 1.78 µM; in [5], 1.8 µM; in assay [6] it was 2.19 µM. The GI50 is 1.72 µM in [7], 2.89 µM in assay [8], 1.8 µM in assay [9] and 1.98 µM in [10]. Moreover, the TGI in assay [1] turned out to be 3.55 µM; in [2], 12.8 µM; in assay [3] it was 3.2 µM; in assay [4], 3.82 µM; in [5], 7.35 µM; in [6] it was 4.86 µM. Also, the TGI in assay [7] was 3.24 µM; in assay [8] it was 11.5 µM; in [9], 3.51 µM; in assay [10], 4.56 µM.

For `C/C(=C1/N=C(c2ccccc2)OC1=O)c1cccs1`, the TGI in assay [1], in [2], in assay [3], in [4], in assay [5] and in [6] was above 100 µM in each case. The TGI in assay [7], in [8], in assay [9] and in assay [10] was above 100 µM in each case.

For the compound `CCN(CC)CCC(CNc1c2ccc(Cl)cc2nc2ccc(OC)cc12)c1ccccc1` (stereo not given), the GI50 in assay [1] is 0.505 µM; in assay [2], 0.915 µM; in [3] it was 1.7 µM; in [4] it was 0.555 µM; in assay [5] it was 1.4 µM; in assay [6], 2.25 µM. Besides, the GI50 was 1.38 µM in assay [7], 1.5 µM in assay [8], 1.97 µM in assay [9] and 1.33 µM in assay [10]. Besides, the TGI was 1.88 µM in assay [1]; 2.8 µM in [2]; 3.11 µM in [3]; 2.1 µM in assay [4]; 2.75 µM in assay [5]; 4.96 µM in assay [6]. The TGI is 3.11 µM in assay [7], 3.55 µM in assay [8], 3.78 µM in assay [9] and 3.85 µM in assay [10].
